Here are results for 14 compounds from PubChem BioAssay (NCI).

“And” between values parts separate entries of the source, which are not always exact repeats. Equal values may be shown once.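 The compound was tested at five concentrations on cells cultured in 96-well plates, with a 48-hour exposure period. GI50 marks 50% less growth. Definition used: TGI = concentration required for complete inhibition of growth.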

Common to all, as to assay: NCI tumour cell line growth inhibition, 48 h
The subject of experiment [1] is 786-0 renal.
Experiment [2] relates to UACC-62 melanoma.
The test system of experiment [3] is NCI-H23 lung.
Experiment [4] relates to A498 renal.
For experiment [5], the system named is LOX IMVI melanoma.
Experiment [6] concerns U251 CNS.
Experiment [7] deals with M14 melanoma.
Experiment [8] concerns OVCAR-8 ovarian.
Experiment [9] relates to BT-549 breast.
The test system of experiment [10] is SK-MEL-2 melanoma.

On to `CN(C)CCn1c(=O)c2ccc3c4c(nn3CCN(C)C)c3ccccc3n(c1=O)c24`, for which the TGI was found to be 0.961 µM in experiment [1]; 1.34 µM in [2]; 1.42 µM in [3]; 1.34 µM in experiment [4]; 1.38 µM in experiment [5]; 1.43 µM in [6]. Moreover, the TGI came to 1.18 µM in experiment [7], 0.288 µM in [8], 5.5 µM in experiment [9] and 1.17 µM in [10].

As to `CS(=O)(=O)O.[Ag]`, the TGI in experiment [1] came to 29.9 µM; in [2], 31.8 µM; in [3], 46.2 µM; in experiment [4], 40 µM; in [5], 73.9 µM; in experiment [6], 30.6 µM. In addition, the TGI in [7] was 9.44 µM; in experiment [8], greater than 100 µM; in [9] it was 38 µM; in [10], 30.2 µM.

As for `CCCCCCCCC/C=C1\CC(CO)(COC(=O)c2ccccc2)OC1=O` (stereo not given), the TGI amounted to 39.8 µM in experiment [1]; 79.4 µM in experiment [2]; 41.9 µM in experiment [3]; 58.3 µM in experiment [4]; 39.5 µM in [6]; 36.6 µM in experiment [7]. Also, the TGI in [9] is 52.1 µM; in [10] it was greater than 100 µM.

For the compound `CC1CCC2(CC1)N=C1CCC(C)CC1C1(CCC(C)CC1)N2` (stereo not given), the TGI in [1], in experiment [2], in experiment [3], in [4], in [5] and in [6] was greater than 100 µM throughout. For the same compound, the TGI in experiment [7], in experiment [8], in experiment [9] and in experiment [10] was greater than 100 µM each time.

Regarding `NCCCCNC1(c2cc3ccccc3s2)CCCCC1`, the TGI worked out at 3.95 µM in experiment [1]; 3.79 µM in experiment [2]; 28.9 µM in [3]; 6.04 µM in experiment [4]; 4.03 µM in experiment [5]; 5.49 µM in experiment [6]. Further, the TGI in experiment [7] amounted to 3.8 µM; in experiment [8], 20.9 µM; in experiment [9], 25.4 µM; in experiment [10], 3.58 µM.

On to `COc1ccc(C2=CN3CCC[C@H]3C=C2c2cc(O)c(OC)c(OC)c2)cc1OC`, for which the TGI in experiment [2] was 0.0336 µM; in experiment [3] it was 0.0278 µM; in experiment [4], 0.0269 µM and 0.062 µM; in experiment [5], 0.00717 µM; in experiment [6] it was 0.105 µM and 0.28 µM; in experiment [7], 0.0204 µM. The TGI in experiment [8] was 0.0518 µM and 0.0108 µM; in experiment [9], 0.331 µM; in experiment [10], 0.0161 µM.

Regarding `C/C=C\C(CC(=O)NCCC1CN(C(=O)c2ccccc2)c2ccccc21)CC(=O)OC` (stereo not given), the TGI in experiment [1], in experiment [2], in experiment [3], in experiment [4], in [6] and in [7] was greater than 100 µM each time. In addition, the TGI in experiment [8], in experiment [9] and in [10] was greater than 100 µM in each case.

On to `CC1(C)[C@@H]2C[C@H]1C(Cc1cccc(C[C@H]3c4cc(-c5ccccn5)ncc4[C@H]4C[C@@H]3C4(C)C)c1)c1cc(-c3ccccn3)ncc12` (stereo not given in full), for which the TGI in [2] is greater than 21 µM; in experiment [3] it was greater than 63.9 µM; in [4], greater than 57 µM; in [5], 4.15 µM; in experiment [6] it was 16.3 µM; in experiment [7] it was 8.45 µM. Besides, the TGI in [8] is greater than 44.2 µM; in [9], greater than 93.5 µM; in [10] it was greater than 100 µM. In experiment [7], the GI50 is 0.858 µM.

`COC(=O)c1ccccc1CC(Cc1ccccc1)C(=O)OC` (stereo not given): the TGI in experiment [1], in experiment [3], in [4], in experiment [5], in [6] and in experiment [7] was greater than 100 µM throughout. Also, the TGI in experiment [8], in experiment [9] and in experiment [10] was greater than 100 µM throughout.

As to `CC(=N\N=C\c1ccccn1)/C(C)=N/N=C(C)/C(C)=N/N=C(C)/C(C)=N/N=C/c1ccccn1`, the TGI in experiment [1], in [3], in experiment [4], in experiment [5], in experiment [6] and in experiment [7] was greater than 100 µM throughout. The TGI in experiment [8], in experiment [9] and in experiment [10] was greater than 100 µM each time.

In the case of `N#Cc1c(N2CCN(c3ccc([N+](=O)[O-])cc3)CC2)[n+](=O)c2ccc(Cl)cc2n1[O-]`, the TGI in [1] is 4.58 µM; in [3], 3.96 µM; in [4], 2.44 µM; in experiment [5] it was 1.15 µM; in experiment [6] it was 5.81 µM; in experiment [7], greater than 23.4 µM. Moreover, the TGI is greater than 22.9 µM in [8], 1.61 µM in experiment [9] and 8.54 µM in experiment [10].

For the compound `CC(C)CCC/C(CBr)=C(\Cl)CCl`, the TGI in experiment [1] turned out to be 3.67 µM; in experiment [3], 8.11 µM; in [4], 35.2 µM; in experiment [5], 0.542 µM; in [6], 13.4 µM; in experiment [7] it was 4.23 µM. Further, the TGI in experiment [8] was 3.86 µM; in experiment [9], 3.52 µM; in experiment [10], 2.97 µM.

For `Cn1ccc(C(=O)NCCCCCNC(=O)c2ccn(C)c(=O)c2O)c(O)c1=O`, the TGI in experiment [1], in [2], in experiment [3], in [4], in [5] and in experiment [6] was greater than 100 µM each time. Besides, the TGI in experiment [8], in experiment [9] and in experiment [10] was greater than 100 µM in each case.

For `C#CCOC(=O)C(N)CCCN=C(N)N` (stereo not given), the TGI in [1], in experiment [3], in experiment [4], in experiment [5], in [6] and in experiment [7] was greater than 100 µM throughout. The TGI in experiment [8], in [9] and in [10] was greater than 100 µM throughout.
